From PubChem BioAssay (NCI)
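Dose response: 5 concentrations. Exposure: 48 h. Format: 96-well plates. Endpoint: linear interpolation; highest concentration if not reached. Abbreviation: GI50, concentration required for 50% inhibition of growth. TGI denotes the concentration required for complete inhibition of growth.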

Legend:
Experiment in all cases: DTP human tumour cell line panel, 48 h
786-0 renal = test system: 786-0 renal
A549 NSCLC = test system: A549 NSCLC
ACHN renal = test system: ACHN renal
CCRF-CEM leukemia = test system: CCRF-CEM leukemia
EKVX NSCLC = test system: EKVX NSCLC
HCC-2998 colon = test system: HCC-2998 colon
HCT-116 colon = test system: HCT-116 colon
HCT-15 colon = test system: HCT-15 colon
HL-60(TB) leukemia = test system: HL-60(TB) leukemia
HOP-62 NSCLC = test system: HOP-62 NSCLC
HOP-92 NSCLC = test system: HOP-92 NSCLC
HT29 colon = test system: HT29 colon
IGROV1 ovarian = test system: IGROV1 ovarian
K-562 leukemia = test system: K-562 leukemia
KM12 colon = test system: KM12 colon
KM20L2 colon = test system: KM20L2 colon
LOX IMVI melanoma = test system: LOX IMVI melanoma
LXFL 529 NSCLC = test system: LXFL 529 NSCLC
M14 melanoma = test system: M14 melanoma
M19-MEL melanoma = test system: M19-MEL melanoma
MALME-3M melanoma = test system: MALME-3M melanoma
MOLT-4 leukemia = test system: MOLT-4 leukemia
NCI-H23 lung = test system: NCI-H23 lung
NCI-H460 lung = test system: NCI-H460 lung
NCI-H522 lung = test system: NCI-H522 lung
OVCAR-3 ovarian = test system: OVCAR-3 ovarian
OVCAR-4 ovarian = test system: OVCAR-4 ovarian
OVCAR-5 ovarian = test system: OVCAR-5 ovarian
OVCAR-8 ovarian = test system: OVCAR-8 ovarian
RXF 393 renal = test system: RXF 393 renal
SF-268 CNS = test system: SF-268 CNS
SF-295 CNS = test system: SF-295 CNS
SF-539 CNS = test system: SF-539 CNS
SK-MEL-2 melanoma = test system: SK-MEL-2 melanoma
SK-MEL-28 melanoma = test system: SK-MEL-28 melanoma
SK-MEL-5 melanoma = test system: SK-MEL-5 melanoma
SK-OV-3 ovarian = test system: SK-OV-3 ovarian
SN12C renal = test system: SN12C renal
SNB-75 CNS = test system: SNB-75 CNS
SNB-78 CNS = test system: SNB-78 CNS
SR leukemia = test system: SR leukemia
SW-620 colon = test system: SW-620 colon
TK-10 renal = test system: TK-10 renal
U251 CNS = test system: U251 CNS
UACC-257 melanoma = test system: UACC-257 melanoma
UACC-62 melanoma = test system: UACC-62 melanoma
UO-31 renal = test system: UO-31 renal

N=C1C(=N)c2ccccc2-c2ccccc21.[Cl-].[Ru+2].c1ccc(-c2ccccn2)nc1.c1ccc(-c2ccccn2)nc1
TGI (786-0 renal): > 100 µM
TGI (A549 NSCLC): > 100 µM
TGI (ACHN renal): > 100 µM
TGI (CCRF-CEM leukemia): > 100 µM
TGI (EKVX NSCLC): > 100 µM
TGI (HCC-2998 colon): > 100 µM
TGI (HCT-116 colon): > 100 µM
TGI (HCT-15 colon): > 100 µM
TGI (HL-60(TB) leukemia): > 100 µM
TGI (HOP-62 NSCLC): > 100 µM
TGI (HOP-92 NSCLC): > 100 µM
TGI (HT29 colon): > 100 µM
TGI (IGROV1 ovarian): > 100 µM
TGI (K-562 leukemia): > 100 µM
TGI (KM12 colon): > 100 µM
GI50 (KM20L2 colon): > 100 µM
TGI (KM20L2 colon): > 100 µM
TGI (LOX IMVI melanoma): > 100 µM
GI50 (LXFL 529 NSCLC): > 100 µM
TGI (LXFL 529 NSCLC): > 100 µM
TGI (M14 melanoma): > 100 µM
GI50 (M19-MEL melanoma): > 100 µM
TGI (M19-MEL melanoma): > 100 µM
TGI (MALME-3M melanoma): > 100 µM
TGI (MOLT-4 leukemia): > 100 µM
TGI (NCI-H23 lung): > 100 µM
TGI (NCI-H460 lung): > 100 µM
TGI (NCI-H522 lung): > 100 µM
TGI (OVCAR-3 ovarian): > 100 µM
TGI (OVCAR-4 ovarian): > 100 µM
TGI (OVCAR-5 ovarian): > 100 µM
TGI (OVCAR-8 ovarian): > 100 µM
TGI (RXF 393 renal): > 100 µM
TGI (SF-268 CNS): > 100 µM
TGI (SF-295 CNS): > 100 µM
TGI (SF-539 CNS): > 100 µM
TGI (SK-MEL-2 melanoma): > 100 µM
TGI (SK-MEL-28 melanoma): > 100 µM
TGI (SK-MEL-5 melanoma): > 100 µM
TGI (SK-OV-3 ovarian): > 100 µM
TGI (SN12C renal): > 100 µM
TGI (SNB-75 CNS): > 100 µM
GI50 (SNB-78 CNS): > 100 µM
TGI (SNB-78 CNS): > 100 µM
TGI (SR leukemia): > 100 µM
TGI (SW-620 colon): > 100 µM
TGI (TK-10 renal): > 100 µM
TGI (U251 CNS): > 100 µM
TGI (UACC-257 melanoma): > 100 µM
TGI (UACC-62 melanoma): > 100 µM
TGI (UO-31 renal): > 100 µM
